From US5726159A, “Antithrombotic agents” (Eli Lilly and Company, priority 1995, dated 1998)
Counter-ions that a name gives are not always drawn.

Tests used:
Type in all cases: biochemical
Bovine trypsin = biological target: T1, Bovine trypsin (Bos taurus, UniProt P00760); experiment: Kass for trypsin, chromogenic substrate
T1 construct: Bovine trypsin is purchased from Worthington Biochemicals, Freehold, N.J; purchased Worthington Biochemicals, Freehold, N.J
T1 sequence (P00760 24-246): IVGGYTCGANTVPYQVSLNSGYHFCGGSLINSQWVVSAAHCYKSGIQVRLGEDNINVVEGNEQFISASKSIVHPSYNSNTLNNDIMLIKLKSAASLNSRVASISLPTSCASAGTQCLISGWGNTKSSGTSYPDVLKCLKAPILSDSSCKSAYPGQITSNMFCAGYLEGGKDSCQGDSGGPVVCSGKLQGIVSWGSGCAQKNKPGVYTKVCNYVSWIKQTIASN
Method: (§1) By substantially following the procedures described above for human thrombin, and using other human blood coagulation system serine proteases and proteases of the fibrinolytic system with the appropriate chromogenic substrates, identified below, selectivity of the compounds of the present invention with respect to the coagulation factor serine proteases and with respect to the fibrinolytic system serine proteases are evaluated as well as their substantial lack of interference with serine proteases of the fibrinolytic system. […] This would be important to the therapeutic use of such agents as an adjunct to streptokinase, t-PA or urokinase thrombolytic therapy and to the use of such agents as an endogenous fibrinolysis-sparing (with respect to t-PA and urokinase) antithrombotic agent. In addition to the lack of interference with the amidase activity of the fibrinolytic proteases, such fibrinolytic system sparing can be studied by the use of human plasma clots and their lysis by the respective fibrinolytic plasminogen activators.
Chromogenic substrates: N-Benzoyl-Ile-Glu-Gly-Arg-p-nitroanilide (for factor Xa); N-Cbz-D-Arg-Gly-Arg-p-nitroanilide (for factor IXa assay as the factor Xa substrate); Pyroglutamyl-Pro-Arg-p-nitroanilide (for Factor XIa and for aPC); H-D-Pro-Phe-Arg-p-nitroanilide (for factor XIIa); and Pyroglutamyl-Gly-Arg-p-nitroanilide (for urokinase); are purchased from KabiVitrnm, Stockholm, Sweden, or from Midwest Biotech, Fishers, Ind. Bovine trypsin is purchased from Worthington Biochemicals, Freehold, N.J., and human plasma kallikrein from Kabi Vitrum, Stockholm, Sweden. Chromogenic substrate H-D-Pro-Phe-Arg-p-nitroanilide for plasma kallikrein is purchased from Kabi Vitrum, Stockholm, Sweden. N-Benzoyl-Phe-Val-Arg-p-nitroanilide, the substrate for human thrombin and for trypsin, is synthesized according to procedures described above for the compounds of the present invention, using known methods of peptide coupling from commercially available reactants or purchased from Midwest Biotech, Fishers, Ind.

t-PA = biological target: T2, t-PA (Homo sapiens, UniProt P00750); experiment: Kass for t-PA, chromogenic substrate
T2 construct: purchased American Diagnostica, Greenwich, Conn
T2 sequence (P00750 36-562): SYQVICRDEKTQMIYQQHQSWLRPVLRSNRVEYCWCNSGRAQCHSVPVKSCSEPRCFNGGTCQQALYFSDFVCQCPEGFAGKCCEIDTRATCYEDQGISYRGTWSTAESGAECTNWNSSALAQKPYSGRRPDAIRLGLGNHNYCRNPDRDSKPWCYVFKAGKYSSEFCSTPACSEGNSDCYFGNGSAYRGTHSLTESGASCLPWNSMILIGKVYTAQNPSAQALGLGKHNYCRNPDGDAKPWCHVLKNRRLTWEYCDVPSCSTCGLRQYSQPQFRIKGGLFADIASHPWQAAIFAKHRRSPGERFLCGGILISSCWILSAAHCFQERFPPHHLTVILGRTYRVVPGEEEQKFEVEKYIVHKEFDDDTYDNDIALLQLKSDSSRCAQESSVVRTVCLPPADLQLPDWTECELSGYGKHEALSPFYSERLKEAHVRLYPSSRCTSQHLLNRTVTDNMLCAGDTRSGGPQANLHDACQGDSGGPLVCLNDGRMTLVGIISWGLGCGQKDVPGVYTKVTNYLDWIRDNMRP
Method: as §1

Human plasma [1] = experiment: Human plasma anticoagulation, thrombin time (TT); conditions: concentration required to double the clotting time
Method: (§2) Dog plasma and rat plasma is obtained from conscious mixed-breed hounds (either sex, Hazelton-LRE, Kalamazoo, Mich., U.S.A.) or from anesthetized male Sprague-Dawley rats (Harlan Sprague-Dawley, Inc., Indianapolis, Ind., U.S.A.) by venipuncture into 3.8 percent citrate. Fibrinogen is prepared from in-date ACD human blood as the fraction I-2 according to previous procedures and specifications. […] Human fibrinogen is also purchased as 98 percent pure/plasmin free from American Diagnostica, Greenwich, Conn. Coagulation reagents ACTIN, Thromboplastin, and Human plasma are from Baxter Healthcare Corp., Dade Division, Miami, Fla. Bovine thrombin from Parke-Davis ([…], Mich.) is used for coagulation assays in plasma.
(§3) Coagulation assay procedures are as previously described. […] A CoAScreener coagulation instrument (American LABor, Inc.) is used for all coagulation assay measurements. The prothrombin time (PT) is measured by adding 0.05 mL saline and 0.05 mL Thromboplastin-C reagent to 0.05 mL test plasma. The activated partial thromboplastin time (APTT) is measured by incubation of 0.05 mL test plasma with 0.05 mL Actin reagent for 120 seconds followed by 0.05 mL CaCl2 (0.02M). The thrombin time (TT) is measured by adding 0.05 mL saline and 0.05 mL thrombin (10 NIH units/mL) to 0.05 mL test plasma. The compounds of Formula I are added to human or animal plasma over a wide range of concentrations to determine prolongation effects on the APTT, PT, and TT assays. Linear extrapolations are performed to estimate the concentrations required to double the clotting time for each assay.

Human plasma [2] = experiment: Human plasma anticoagulation, activated partial thromboplastin time (APTT); conditions: concentration required to double the clotting time
Method: as §2, §3

Human plasma [3] = experiment: Human plasma anticoagulation, prothrombin time (PT); conditions: concentration required to double the clotting time
Method: as §2, §3

human thrombin = human thrombin (Homo sapiens, UniProt P00734); experiment: Inhibition of thrombin amidase activity (Kass), chromogenic substrate; conditions: association constant, mean over concentrations

Compound	Kass Trypsin (Bovine trypsin)	Kass t-PA (t-PA)	2x Clotting time TT (Human plasma [1])	2x Clotting time APTT (Human plasma [2])	2x Clotting time PT (Human plasma [3])	Kass Human Thrombin (human thrombin)
N=C(N)c1ccc(CNC(=O)[C@@H]2CCCN2C(=O)[C@H](N)CC2CCCCC2)cc1 [Example 51, D-Cha-Pro-p-NHCH2 C6 H4 C(NH)NH2.2HCl]	27. × 10^6 (L/mole)	0.01 × 10^6 (L/mole)	2 ng/mL	48 ng/mL	110 ng/mL	–
N=C(N)NCCCCCNC(=O)[C@@H]1CCCN1C(=O)[C@H](N)Cc1ccccc1 [Example 6, D-Phe-Pro-NH(CH2)5 NHC(NH)NH2.HCl]	–	< 0.001	390 ng/mL	–	–	–
N=C(N)c1ccc(CNC(=O)[C@@H]2CCCN2C(=O)[C@@H](CC2CCCCC2)NCC(=O)O)cc1 [Example 48, HOOCCH2 -D-Cha-Pro-p-NHCH2 C6 H4 C(NH)NH2.HCl]	250. × 10^6 (L/mole)	–	2. ng/mL	33 ng/mL	59 ng/mL	–
CCS(=O)(=O)N[C@H](Cc1ccccc1)C(=O)N1CCC[C@H]1C(=O)NCc1ccc(NC(=N)N)cc1 [Example 34, EtSO2 -D-Phe-Pro-p-NHCH2 C6 H4 NHC(NH)NH2.HCl]	–	0.01 × 10^6 (L/mole)	530 ng/mL	4,900 ng/mL	5,500 ng/mL	–
N=C(N)c1ccc(CNC(=O)[C@@H]2CCCN2C(=O)[C@@H](CC2CCCCC2)NCCC(=O)O)cc1 [Example 52, HOOCCH2 CH2 -D-Cha-Pro-p-NHCH2 C6 H4 C(NH)NH2.HCl]	47. × 10^6 (L/mole)	0.01 × 10^6 (L/mole)	6 ng/mL	80 ng/mL	170 ng/mL	–
N=C(N)c1ccc(CNC(=O)[C@@H]2C[C@@H]3CCCC[C@@H]3N2C(=O)[C@@H]2NCC[C@@H]3CCCC[C@@H]32)cc1 (relative stereo) [Example 42, D-1-Piq-cis-Ohi-p-NHCH2 C6 H4 C(NH)NH2.2HCl]	43. × 10^6 (L/mole)	0.01 × 10^6 (L/mole)	20 ng/mL	270 ng/mL	320 ng/mL	38. × 10^6 (L/mole)
CCS(=O)(=O)N[C@H](Cc1ccccc1)C(=O)N1[C@H](C(=O)NCc2ccc(C(=N)N)cc2)C[C@@H]2CCCC[C@@H]21 (relative stereo) [Example 45, EtSO2 -Phe-cis-Ohi-p-NHCH2 C6 H4 C(NH)NH2.HCl]	110. × 10^6 (L/mole)	–	8 ng/mL	200 ng/mL	330 ng/mL	–
N=C(N)c1cccc(CNC(=O)[C@@H]2CCCN2C(=O)[C@@H]2NCC[C@@H]3CCCC[C@@H]32)c1 [Example 25, D-1-Piq-Pro-m-NHCH2 -C6 H4 C(=NH)NH2.HCl]	–	0.01 × 10^6 (L/mole)	1,430 ng/mL	34,600 ng/mL	40,400 ng/mL	–
NMI-D-Phe-Pro-Agm.HCl [Example 4]	–	–	230 ng/mL	–	–	13. × 10^6 (L/mole)
N=C(N)c1ccc(CNC(=O)[C@@H]2C[C@@H]3CCCC[C@@H]3N2C(=O)[C@@H](Cc2ccccc2)NCC(=O)O)cc1 (relative stereo) [Example 47, HOOCCH2 -D-Phe-cis-Ohi-p-NHCH2 C6 H4 C(NH)NH2.HCl]	82. × 10^6 (L/mole)	0.01 × 10^6 (L/mole)	12. ng/mL	140 ng/mL	270 ng/mL	–
N=C(N)c1ccc(CNC(=O)[C@@H]2CCCN2C(=O)[C@@H](CC2CCCCC2)NCC(=O)O)c(F)c1 [Example 71, HO2 CCH2 -D-Cha-Pro-4-NHCH2 -3-F-benzamidine.HCl]	240. × 10^6 (L/mole)	–	1 ng/mL	89 ng/mL	150 ng/mL	–
HOOCCH2 -D-Phe-Pro-p-NHCH2 C6 H4 C(NH)NH2.HCl [Example 46]	48.	0.01	2. ng/mL	67 ng/mL	77 ng/mL	–
HO2 CCH2 -D-Cha-Pro-4-NHCH2 -2-amidinothiophene.HCl [Example 65]	570. × 10^6 (L/mole)	–	1 ng/mL	48 ng/mL	–	4,500 × 10^6 (L/mole)
CCS(=O)(=O)N[C@H](CC1CCCCC1)C(=O)N1CCC[C@H]1C(=O)NCc1ccc(C(=N)N)cc1 [Example 80, EtSO2 -D-Cha-Pro-4-NHCH2 C6 H4 C(NH)NH2.HCl]	90. × 10^6 (L/mole)	–	4 ng/mL	40 ng/mL	130 ng/mL	–
N=C(N)c1ccc(CNC(=O)[C@@H]2C[C@@H]3CCCC[C@@H]3N2C(=O)[C@@H](CC2CCCCC2)NCC(=O)O)cc1 (relative stereo) [Example 49, HOOCCH2 -D-Cha-cis-Ohi-p-NHCH2 C6 H4 C(NH)NH2.HCl]	940. × 10^6 (L/mole)	–	5 ng/mL	130 ng/mL	130 ng/mL	–
N=C(N)c1ccc(CCCNC(=O)[C@@H]2CCCN2C(=O)[C@@H]2NCC[C@@H]3CCCC[C@@H]32)cc1 [Example 32, 1-Piq-Pro-p-NHCH2 CH2 CH2 -C6 H4 C(=NH)NH2.HCl]	–	0.01 × 10^6 (L/mole)	3,100 ng/mL	28,500 ng/mL	47,800 ng/mL	–
N=C(N)c1ccc(CNC(=O)[C@@H]2C[C@@H]3CCCC[C@@H]3N2C(=O)[C@H]2C[C@H]3CCCC[C@H]3CN2)cc1 (relative stereo) [Example 43, D-3-Piq-cis-Ohi-p-NHCH2 C6 H4 C(NH)NH2.2HCl]	100. × 10^6 (L/mole)	0.01 × 10^6 (L/mole)	280 ng/mL	1,100 ng/mL	930 ng/mL	–
CCS(=O)(=O)N[C@H](Cc1ccccc1)C(=O)N1CCC[C@H]1C(=O)NCCc1ccc(C(=N)N)cc1 [Example 26, EtSO2 -D-Phe-Pro-p-NHCH2 CH2 -C6 H4 C(=NH)NH2.HCl]	–	0.01 × 10^6 (L/mole)	37 ng/mL	870 ng/mL	750 ng/mL	13. × 10^6 (L/mole)
CCS(=O)(=O)N[C@H](Cc1ccccc1)C(=O)N1CCC[C@H]1C(=O)NCCCc1cccc(C(=N)N)c1 [Example 31, EtSO2 -D-Phe-Pro-m-NHCH2 CH2 CH2 -C6 H4 C(=NH)NH2.HCl]	–	–	10,800 ng/mL	34,500 ng/mL	30,000 ng/mL	–
1-Piq-Pro-p-NHCH2 C6 H4 C(NH)NH2.2HCl [Example 18]	–	–	7 ng/mL	79 ng/mL	170 ng/mL	–
